From the supplement of paper PMC10307832

Assays:
Assay in all cases: relative viability (nuclei count vs DMSO), 5 days (fraction); higher = more cells survive
[1] = compound: CCn1c(-c2nonc2N)nc2cnc(Oc3cccc(NC(=O)c4ccc(OCCN5CCOCC5)cc4)c3)cc21 + NC(=O)Nc1cc(-c2cccc(F)c2)sc1C(=O)N[C@H]1CCCNC1 [AZD7762] (partner 0.2 µM)
Outline: (§1)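 Lung cancer cell lines were seeded in 1536-well plates and dosed by pin tool the next day, with either a single drug or a fixed anchor-drug dose combined with five library-drug doses (not always all listed) spaced in √10 steps. Five days later, one step fixed the cells and stained their nuclei (final 0.05% Triton X-100, 1% formaldehyde, 1 ug/ml Hoechst), and nuclei were counted on 4× images. Relative viability is the nuclei count in treated wells divided by the count in vehicle wells, and each value is the median of duplicate plates.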

[2] = compound: CCC1=CN=CN=C1N2CCN(CC2)CC3=NC4=C(N3)C=C(C=C4)C(F)(F)F + COc1cccc2cc(-c3nc([C@H]4CC[C@H](C(=O)O)CC4)n4ncnc(N)c34)[nH]c12 [OSI-027] (partner 0.5 µM)
Outline: as §1

[3] = compound: CCC1=CN=CN=C1N2CCN(CC2)CC3=NC4=C(N3)C=C(C=C4)C(F)(F)F + Nc1ncn([C@H]2C[C@H](O)[C@@H](CO)O2)c(=O)n1 [Decitabine] (partner 2 µM)
Outline: as §1

[4] = compound: CCn1c(-c2nonc2N)nc2cnc(Oc3cccc(NC(=O)c4ccc(OCCN5CCOCC5)cc4)c3)cc21 + CC1(C)CCC(c2ccc(Cl)cc2)=C(CN2CCN(c3ccc(C(=O)NS(=O)(=O)c4ccc(N[C@H](CCN5CCOCC5)CSc5ccccc5)c(S(=O)(=O)C(F)(F)F)c4)cc3)CC2)C1 [Navitoclax] (partner 0.5 µM)
Outline: as §1

| Cell Line | relative viability ([1]; first compound 0.04 µM) | relative viability ([1]; first compound 0.1265 µM) | relative viability ([1]; first compound 0.4 µM) | relative viability ([1]; first compound 1.265 µM) | relative viability ([1]; first compound 4 µM) | relative viability ([2]; first compound 0.04 µM) | relative viability ([2]; first compound 0.1265 µM) | relative viability ([2]; first compound 0.4 µM) | relative viability ([2]; first compound 1.265 µM) | relative viability ([2]; first compound 4 µM) | relative viability ([3]; first compound 0.04 µM) | relative viability ([3]; first compound 0.1265 µM) | relative viability ([3]; first compound 0.4 µM) | relative viability ([3]; first compound 1.265 µM) | relative viability ([3]; first compound 4 µM) | relative viability ([4]; first compound 0.04 µM) | relative viability ([4]; first compound 0.1265 µM) | relative viability ([4]; first compound 0.4 µM) | relative viability ([4]; first compound 1.265 µM) | relative viability ([4]; first compound 4 µM) |
| --- | --- | --- | --- | --- | --- | --- | --- | --- | --- | --- | --- | --- | --- | --- | --- | --- | --- | --- | --- | --- |
| NCI-H322M | 0.587 | 0.556 | 0.561 | 0.496 | 0.445 | 0.608 | 0.495 | 0.59 | 0.449 | 0.527 | 0.687 | 0.658 | 0.632 | 0.654 | 0.699 | 1.39 | 1.16 | 1.28 | 1.26 | 1.32 |
| NCI-H1395 | 0.356 | 0.36 | 0.359 | 0.352 | 0.333 | 0.572 | 0.669 | 0.615 | 0.641 | 0.671 | 0.705 | 0.676 | 0.692 |  | 0.743 | 1.19 | 1.02 | 0.982 | 0.534 | 0.729 |
| NCI-H1651 | 0.566 | 0.477 | 0.373 | 0.146 | 0.282 | 0.805 | 0.795 | 0.641 | 0.757 | 0.788 | 0.623 | 0.413 | 0.667 | 0.602 | 0.581 | 1.17 | 1.14 | 1.05 | 0.925 | 0.471 |
| HARA | 0.215 | 0.161 | 0.148 | 0.207 | 0.198 | 0.317 | 0.456 | 0.392 |  | 0.529 | 0.424 | 0.505 | 0.533 | 0.508 | 0.512 | 1.19 | 1.02 | 1.09 | 1.18 | 1.14 |
| NCI-H1944 | 0.5 | 0.524 | 0.297 | 0.249 | 0.202 | 0.524 | 0.382 | 0.385 | 0.338 | 0.39 | 0.476 | 0.415 | 0.426 | 0.391 | 0.435 | 1.03 | 1.03 |  | 1.02 | 0.97 |
| NCI-H2405 | 0.446 | 0.18 | 0.14 | 0.144 | 0.137 | 0.723 | 0.614 | 0.669 |  | 0.717 | 0.748 | 0.715 | 0.711 |  | 0.795 | 1.16 | 0.361 | 0.367 | 0.183 | 0.144 |
| 201T | 0.632 | 0.603 | 0.462 | 0.608 | 0.535 | 0.737 | 0.752 | 0.748 | 0.664 | 0.747 | 0.823 | 0.813 | 0.879 | 0.869 | 0.819 | 1.16 | 1.19 | 1.18 | 1.21 | 1.14 |
| PC-3 [JPC-3] | 0.892 | 0.889 | 0.828 | 0.56 | 0.658 | 0.65 | 0.67 | 0.705 | 0.731 | 0.728 |  | 0.779 | 0.706 | 0.771 | 0.835 | 0.846 | 0.814 | 0.801 | 0.866 | 0.779 |
| NCI-H1703 |  | 0.111 | 0.115 | 0.119 | 0.123 |  |  |  |  |  |  |  |  |  |  | 1.03 | 0.886 | 0.474 | 0.296 | 0.233 |
| NCI-H838 | 0.946 | 0.725 | 0.669 | 0.635 | 0.691 | 0.443 | 0.438 | 0.403 | 0.313 | 0.354 | 0.418 | 0.408 | 0.475 | 0.433 | 0.444 | 0.982 | 0.686 | 0.569 | 0.354 | 0.294 |
| NCI-H1792 | 0.541 | 0.37 | 0.15 | 0.106 | 0.11 | 0.89 | 0.684 | 0.698 | 0.668 | 0.547 | 0.543 | 0.437 | 0.57 |  | 0.523 | 0.732 | 0.58 |  | 0.348 | 0.518 |
| ChaGo-K-1 | 0.978 | 0.867 | 0.738 | 0.596 | 0.581 | 0.542 | 0.564 | 0.513 | 0.559 | 0.52 | 0.554 | 0.471 | 0.526 | 0.501 | 0.488 | 1.42 | 0.876 | 0.762 |  | 0.712 |
| HOP-62 | 0.774 | 0.443 | 0.468 | 0.227 | 0.19 | 0.81 | 0.794 | 0.756 | 0.757 | 0.85 | 0.185 | 0.199 | 0.214 | 0.249 | 0.193 | 1.26 | 1.07 | 1.05 |  | 1.06 |
| NCI-H1915 | 0.726 | 0.569 | 0.467 | 0.251 | 0.201 | 0.612 | 0.629 | 0.605 | 0.49 | 0.587 | 0.24 | 0.262 | 0.261 | 0.272 | 0.263 | 0.829 | 0.797 | 0.764 | 0.575 | 0.762 |
| BEN | 0.683 | 0.532 | 0.388 | 0.385 | 0.468 | 0.299 | 0.276 | 0.317 | 0.223 | 0.256 | 0.638 | 0.61 | 0.703 | 0.548 | 0.508 | 0.0536 | 0.0704 | 0.0589 | 0.0468 | 0.0489 |
| CAL-12T | 0.675 | 0.601 | 0.56 | 0.267 | 0.353 | 0.481 | 0.691 | 0.545 | 0.577 | 0.627 |  |  |  |  |  | 1.83 | 1.46 | 1.61 | 1.35 | 0.955 |
| LCLC-103H | 0.837 | 0.743 | 0.422 | 0.397 | 0.404 | 0.48 | 0.492 | 0.4 | 0.456 | 0.457 | 0.708 | 0.698 | 0.712 | 0.748 | 0.728 |  |  |  |  |  |
| NCI-H358 | 0.517 | 0.56 | 0.329 | 0.293 | 0.337 | 0.867 | 0.656 | 0.772 | 0.62 | 0.764 | 0.206 | 0.204 | 0.158 | 0.174 | 0.217 |  |  |  |  |  |
